Measurements taken from US20240197828A1, “Chimeric molecule to treat sepsis and other inflammatory conditions” (THE FEINSTEIN INSTITUTES FOR MEDICAL RESEARCH, priority 2022, published 2024).
“Also recorded” adds a separate entry of the source. Residues, ends and D or L forms follow the SMILES beside them.

What was measured:
RAW264.7 macrophages = experiment: Intracellular uptake of FITC-rmCIRP by macrophages (flow cytometry, confocal microscopy); type: cell-based, mouse; conditions: for intracellular FITC-rmCIRP uptake (flow cytometry): RAW264.7, FITC-rmCIRP 1 μg/mL co-incubated with test substance (peptide 10 μg/mL), 1 hour, vs FITC-rmCIRP alone
Method: FIG. 3. Effects of MOP peptides MOP-3, MOP-8 and MOP-14 on eCIRP. Flow cytometry experiment whereby RAW264.7 macrophages were treated for 1 hour according to respective group: PBS (volume-equivalent), FITC-rmCIRP (1 μg/mL), or a mixture of FITC-rmCIRP (1 μg/mL) with each respective peptide (10 μg/mL) after co-incubating for 30 minutes. Intracellular FITC-rmCIRP was analyzed by flow cytometry. Median fluorescence intensity (MFI) reported as percentage relative to PBS-treated RAW264.7 cells. Data from two independent experiments are expressed as mean±SEM and compared by one-way ANOVA and SNK test. *p<0.05 vs. PBS, #p<0.05 vs. eCIRP.
(§1) Computational modeling was used to determine the likely domain of MFG-E8's binding to eCIRP. The known amino acid (AA) sequence of this domain was used to develop and test potential therapeutic peptides. An MFG-E8 derived oligopeptide, MOP3, was developed based on 15 AA from MFG-E8 discoidin 2 domain (mimicking MFG-E8's C-terminal) and tagged with the 3 AA, RGD, (mimicking MFG-E8's binding capacity for the integrin receptor at the N-terminal). Binding of MOP3 to CIRP was quantified using Surface Plasmon Resonance (SPR) analysis. Macrophages (RAW264.7 cells) were treated with FITC-recombinant mouse (rm)-CIRP or co-incubated MOP3 and FITC-rmCIRP with and without a. Br-integrin Ab. After 1 h, cells were fixed and analyzed for intracellular FITC-rmCIRP by flow cytometry. Macrophages were stimulated with rmCIRP or co-incubated mixture of MOP3 and rmCIRP. After 4 h, cell culture supernatants were analyzed for inflammatory cytokine, TNFα.
Mouse macrophage cell line, RAW264.7 cells were obtained from American Type Culture Collection (ATCC) and cultured in DMEM media with 10% FBS, 1% penicillin and streptomycin, and 1% glutamine. Cells were kept in 37° C. incubator under humidified conditions containing 5% CO2.
rmCIRP was labeled using a FITC Conjugation Kit (Abcam, ab188285), and rmMFG-E8 was labeled using Alexa Fluor Conjugation Kit (Abcam, ab269821), both according to respective manufacturer's instructions.
In order to visualize cellular uptake, we initially utilized TRITC-BSA as an internal probe, as BSA is taken up into cells primarily by endocytosis and retained intracellularly after fixation (27, 28). For further visualization of intracellular localization, we utilized LAMP1 primary antibody (as it is distributed among endolysosomal organelles and serves as a marker for lysosomal compartments) (29), and utilized lysotracker in live cell experiments (as it allows for imaging of dynamics of lysosome vesicle movements) (30). RAW264.7 cells were treated in various conditions with rmCIRP, rmMFG-E8, and inhibitory antibody against auß3-integrin (Bioss antibodies, bs-1310R) for 4 hours. Cells were fixed with 4% paraformaldehyde (PFA), washed with 1×PBS, permeabilized using 0.3% Triton x100, and blocked using 5% BSA 100 mM Glycine in PBS prior to primary antibody treatment. After incubation with secondary antibodies, cells were washed and mounted with ProLong Gold antifade reagent (Invitrogen). For live cell imaging, cells remained in treatment conditions and were imaged under CO2. Staining procedures were performed according to the manufacturers' instructions utilizing respective fluorescent dyes and probes. For all imaging, confocal microscopy images were obtained using a Zeiss LSM880 confocal microscope equipped with a 63× objective. Images were quantified and analyzed using Image J, FIJI.(31) Flow cytometry.
To detect changes in internalized eCIRP in the presence of MFG-E8, RAW264.7 cells were seeded in 12-well plates (approximately 3×10^5 cells/well) and were treated with FITC-eCIRP. Treatment groups consisted of FITC-eCIRP, FITC-eCIRP with MFG-E8, FITC-eCIRP with MFG-E8 and αvβ3-integrin antibody (0.5 μg/mL), or FITC-eCIRP with MFG-E8 and IgG isotype (0.5 μg/mL). Similar experiments were conducted with MOP3 instead of MFG-E8 in parallel groups. […]

RAW264.7 cells = experiment: eCIRP-induced cytokine release in RAW264.7 cells (ELISA of supernatants); type: cell-based, mouse; conditions: RAW264.7, rmCIRP 1 μg/mL, 4 hours, vs rmCIRP alone
Method: FIG. 2. Effects of MOP peptides on TNFα levels. RAW264.7 macrophages were cultured and treated with either volume-equivalent PBS, recombinant murine (rm) CIRP (eCIRP; 1 μg/mL), or rmCIRP with each respective peptide (10 μg/mL). After 4 hours, cell supernatants were assessed for TNFα levels by ELISA. Experiments were performed 3 times, and all data were used for analysis. Data are expressed as mean±SEM and compared by one-way ANOVA and SNK test. *p<0.05 vs. PBS, #p<0.05 vs. eCIRP.
FIG. 4. eCIRP-induced inflammation is attenuated by MOP3. RAW264.7 cells were treated according to respective groups: PBS (volume equivalent), rmCIRP (1 μg/mL), or rmCIRP with MOP3 at increasing doses. After 4 hours, cell supernatants were analyzed for TNFα levels by ELISA. Experiments were performed 3 times, and all data were used for analysis. Data are expressed as mean #SEM and compared by one-way ANOVA and SNK test. *p<0.05 vs. PBS, #p<0.05 vs. eCIRP.
as §1
Mouse macrophage cell line, RAW264.7 cells were obtained from American Type Culture Collection (ATCC) and cultured in DMEM media with 10% FBS, 1% penicillin and streptomycin, and 1% glutamine. Cells were kept in 37° C. incubator under humidified conditions containing 5% CO2. […]
The mouse macrophage cell culture supernatants were analyzed for cytokine levels using ELISA kits (BD Biosciences, CA). […] TNF-α and IL-6 levels were measured in cell supernatants by ELISA in accordance with respective manufacturers' instructions (BD Biosciences, CA). Blood was collected, centrifuged at 4,000 RPM for 10 minutes, and sera was separated and analyzed for cytokine levels using ELISA kits (BD Biosciences, CA). TNF-α and IL-6 levels in the serum were measured by ELISA in accordance with respective manufacturers' instructions.

## CC(C)C[C@H](NC(=O)[C@H](CC(N)=O)NC(=O)[C@H](Cc1c[nH]c2ccccc12)NC(=O)[C@@H](NC(=O)[C@H](CCCCN)NC(=O)[C@H](Cc1ccc(O)cc1)NC(=O)[C@H](CO)NC(=O)[C@H](CO)NC(=O)[C@H](CO)NC(=O)[C@H](CC(=O)O)NC(=O)CNC(=O)[C@@H](N)CCCNC(=N)N)[C@@H](C)O)C(=O)N[C@@H](CCCNC(=N)N)C(=O)N[C@@H](C)C(=O)N[C@@H](Cc1ccccc1)C(=O)NCC(=O)N[C@@H](Cc1c[nH]c2ccccc12)C(=O)N[C@@H](Cc1ccc(O)cc1)C(=O)O [MOP3, RGDSSSYKTWNLRAFGWY] (H-RGDSSSYKTWNLRAFGWY-OH; N-terminus and C-terminus assumed)
RAW264.7 macrophages
  intracellular FITC-rmCIRP uptake (flow cytometry): increased intracellular fluorescence; also recorded: significantly increased intracellular rmCIRP uptake
RAW264.7 macrophages; listed as peptide-3
  intracellular FITC-rmCIRP uptake (flow cytometry): could increase intracellular uptake of FITC-eCIRP
RAW264.7 macrophages; RAW264.7, αvβ3-integrin antibody 0.5 μg/mL
  intracellular FITC-rmCIRP uptake with αvβ3-integrin blocking antibody (flow cytometry): prevented
RAW264.7 cells
  TNFα levels in cell supernatants: strong inhibitory effect; also recorded: significantly decreased TNFα levels
RAW264.7 cells; listed as peptide-3
  TNFα levels in cell supernatants: capable of attenuating TNFα release
